Source: article PMC7998669, “7-(2-Anilinopyrimidin-4-yl)-1-benzazepin-2-ones Designed by a “Cut and Glue” Strategy Are Dual Aurora A/VEGF-R Kinase Inhibitors” (Molecules, 2021)

Tests used:
Test in all cases: radiometric 33PanQinase protein kinase assay
Assay type in all cases: biochemical
Details in all cases: 1 µM ATP
ARK5 = target: T1, ARK5 (Homo sapiens, UniProt O60285)
T1 construct: host or cells: Sf9 (baculovirus)

CDK4/CycD1 = target: T2, CDK4/CycD1 (Homo sapiens, UniProt P11802)
T2 construct: host or cells: Sf9 (baculovirus)

ERBB2 = target: T3, ERBB2 (Homo sapiens, UniProt P04626)
T3 construct: host or cells: Sf9 (baculovirus)

PDGFR-beta = target: T4, PDGFR-beta (Homo sapiens, UniProt P09619)
T4 construct: host or cells: Sf9 (baculovirus)

SAK = target: T5, SAK (Homo sapiens, UniProt O00444)
T5 construct: host or cells: Sf9 (baculovirus)

TIE2 = target: T6, TIE2 (Homo sapiens, UniProt Q02763)
T6 construct: host or cells: Sf9 (baculovirus)
T6 sequence (Q02763 23-1124): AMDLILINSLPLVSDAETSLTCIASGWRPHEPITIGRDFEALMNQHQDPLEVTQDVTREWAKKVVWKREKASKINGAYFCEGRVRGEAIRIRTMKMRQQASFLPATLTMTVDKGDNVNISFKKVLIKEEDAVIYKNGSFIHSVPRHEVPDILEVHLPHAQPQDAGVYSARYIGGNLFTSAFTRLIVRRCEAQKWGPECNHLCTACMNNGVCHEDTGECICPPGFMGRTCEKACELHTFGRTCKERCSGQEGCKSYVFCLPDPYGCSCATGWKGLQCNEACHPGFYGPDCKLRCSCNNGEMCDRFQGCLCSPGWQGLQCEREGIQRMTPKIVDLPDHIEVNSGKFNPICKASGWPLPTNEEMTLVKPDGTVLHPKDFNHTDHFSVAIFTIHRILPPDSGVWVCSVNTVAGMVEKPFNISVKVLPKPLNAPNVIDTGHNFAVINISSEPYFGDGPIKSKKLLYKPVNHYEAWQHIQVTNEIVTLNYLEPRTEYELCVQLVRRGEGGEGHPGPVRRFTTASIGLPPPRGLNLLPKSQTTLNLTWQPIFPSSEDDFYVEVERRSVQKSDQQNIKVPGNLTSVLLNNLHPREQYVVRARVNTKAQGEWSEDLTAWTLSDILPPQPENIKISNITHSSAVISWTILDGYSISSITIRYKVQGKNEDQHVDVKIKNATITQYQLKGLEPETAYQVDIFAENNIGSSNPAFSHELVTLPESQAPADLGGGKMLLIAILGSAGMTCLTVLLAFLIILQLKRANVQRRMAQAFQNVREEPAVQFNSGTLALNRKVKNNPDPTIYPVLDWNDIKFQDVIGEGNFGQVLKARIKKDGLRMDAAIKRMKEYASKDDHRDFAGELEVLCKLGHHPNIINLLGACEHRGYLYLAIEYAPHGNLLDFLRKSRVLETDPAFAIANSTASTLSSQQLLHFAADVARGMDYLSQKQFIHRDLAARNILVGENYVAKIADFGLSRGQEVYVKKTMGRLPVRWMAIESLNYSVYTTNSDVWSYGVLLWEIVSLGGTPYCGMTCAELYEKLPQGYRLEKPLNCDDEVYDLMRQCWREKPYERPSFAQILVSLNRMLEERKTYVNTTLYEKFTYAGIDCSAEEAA

T2 sequence (P11802 whole entry): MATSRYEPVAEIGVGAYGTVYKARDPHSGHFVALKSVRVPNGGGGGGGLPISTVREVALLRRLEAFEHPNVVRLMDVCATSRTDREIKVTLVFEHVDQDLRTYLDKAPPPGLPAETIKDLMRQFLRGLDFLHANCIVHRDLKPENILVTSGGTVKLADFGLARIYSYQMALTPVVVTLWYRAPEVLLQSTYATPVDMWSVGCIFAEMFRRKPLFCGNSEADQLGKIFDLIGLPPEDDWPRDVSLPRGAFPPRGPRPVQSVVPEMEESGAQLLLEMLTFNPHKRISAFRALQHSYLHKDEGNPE
T2 sequence (P24385 whole entry partner): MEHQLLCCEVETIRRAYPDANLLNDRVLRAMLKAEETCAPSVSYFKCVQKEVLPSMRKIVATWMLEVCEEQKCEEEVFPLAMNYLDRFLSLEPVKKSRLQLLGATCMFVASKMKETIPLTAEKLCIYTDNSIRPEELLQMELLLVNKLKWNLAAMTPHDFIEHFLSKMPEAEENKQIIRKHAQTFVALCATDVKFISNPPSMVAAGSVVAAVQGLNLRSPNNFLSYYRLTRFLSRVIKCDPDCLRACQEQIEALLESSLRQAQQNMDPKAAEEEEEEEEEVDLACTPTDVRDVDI
T5 sequence (O00444 whole entry): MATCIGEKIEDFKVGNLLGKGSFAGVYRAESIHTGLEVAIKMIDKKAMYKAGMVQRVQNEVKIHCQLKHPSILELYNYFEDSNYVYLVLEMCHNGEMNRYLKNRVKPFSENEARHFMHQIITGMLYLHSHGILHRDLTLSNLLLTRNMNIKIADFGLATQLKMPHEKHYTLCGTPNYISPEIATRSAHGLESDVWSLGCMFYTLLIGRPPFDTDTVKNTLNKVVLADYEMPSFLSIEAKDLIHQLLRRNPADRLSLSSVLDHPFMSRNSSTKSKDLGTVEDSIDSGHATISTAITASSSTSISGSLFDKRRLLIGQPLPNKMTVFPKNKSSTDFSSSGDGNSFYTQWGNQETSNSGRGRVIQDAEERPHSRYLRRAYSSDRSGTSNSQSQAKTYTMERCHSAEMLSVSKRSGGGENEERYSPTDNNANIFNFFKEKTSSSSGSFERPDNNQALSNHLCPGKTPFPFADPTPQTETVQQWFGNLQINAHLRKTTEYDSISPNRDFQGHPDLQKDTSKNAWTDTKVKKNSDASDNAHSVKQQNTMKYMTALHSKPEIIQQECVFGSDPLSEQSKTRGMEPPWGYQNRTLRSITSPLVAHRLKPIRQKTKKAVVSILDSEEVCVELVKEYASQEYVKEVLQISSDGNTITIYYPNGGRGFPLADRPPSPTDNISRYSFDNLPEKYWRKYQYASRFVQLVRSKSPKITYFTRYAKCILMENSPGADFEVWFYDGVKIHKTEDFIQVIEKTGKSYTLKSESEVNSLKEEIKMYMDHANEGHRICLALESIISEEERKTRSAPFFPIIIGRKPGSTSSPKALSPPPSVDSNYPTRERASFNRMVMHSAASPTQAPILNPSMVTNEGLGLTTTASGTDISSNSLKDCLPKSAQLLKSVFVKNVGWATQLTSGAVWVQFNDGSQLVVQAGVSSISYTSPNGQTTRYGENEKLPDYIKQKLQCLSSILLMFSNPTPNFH
T1 sequence (O60285 whole entry): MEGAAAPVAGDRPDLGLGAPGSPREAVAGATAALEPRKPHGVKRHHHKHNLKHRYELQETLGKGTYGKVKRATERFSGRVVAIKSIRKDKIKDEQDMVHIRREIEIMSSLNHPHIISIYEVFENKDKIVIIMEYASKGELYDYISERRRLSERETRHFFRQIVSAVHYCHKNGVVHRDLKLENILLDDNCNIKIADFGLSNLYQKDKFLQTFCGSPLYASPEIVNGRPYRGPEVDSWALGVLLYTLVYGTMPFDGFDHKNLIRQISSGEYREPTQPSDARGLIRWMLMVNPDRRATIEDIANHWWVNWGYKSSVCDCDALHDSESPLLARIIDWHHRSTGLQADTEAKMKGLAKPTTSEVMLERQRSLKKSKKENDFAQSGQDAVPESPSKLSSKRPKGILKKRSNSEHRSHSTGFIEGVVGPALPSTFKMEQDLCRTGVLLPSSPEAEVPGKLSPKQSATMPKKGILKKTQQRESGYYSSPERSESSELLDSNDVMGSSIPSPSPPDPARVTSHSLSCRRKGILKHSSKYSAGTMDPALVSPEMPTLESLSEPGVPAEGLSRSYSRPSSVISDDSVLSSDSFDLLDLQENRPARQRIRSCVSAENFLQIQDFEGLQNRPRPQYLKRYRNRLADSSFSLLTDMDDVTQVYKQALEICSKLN
T4 sequence (P09619 33-1106): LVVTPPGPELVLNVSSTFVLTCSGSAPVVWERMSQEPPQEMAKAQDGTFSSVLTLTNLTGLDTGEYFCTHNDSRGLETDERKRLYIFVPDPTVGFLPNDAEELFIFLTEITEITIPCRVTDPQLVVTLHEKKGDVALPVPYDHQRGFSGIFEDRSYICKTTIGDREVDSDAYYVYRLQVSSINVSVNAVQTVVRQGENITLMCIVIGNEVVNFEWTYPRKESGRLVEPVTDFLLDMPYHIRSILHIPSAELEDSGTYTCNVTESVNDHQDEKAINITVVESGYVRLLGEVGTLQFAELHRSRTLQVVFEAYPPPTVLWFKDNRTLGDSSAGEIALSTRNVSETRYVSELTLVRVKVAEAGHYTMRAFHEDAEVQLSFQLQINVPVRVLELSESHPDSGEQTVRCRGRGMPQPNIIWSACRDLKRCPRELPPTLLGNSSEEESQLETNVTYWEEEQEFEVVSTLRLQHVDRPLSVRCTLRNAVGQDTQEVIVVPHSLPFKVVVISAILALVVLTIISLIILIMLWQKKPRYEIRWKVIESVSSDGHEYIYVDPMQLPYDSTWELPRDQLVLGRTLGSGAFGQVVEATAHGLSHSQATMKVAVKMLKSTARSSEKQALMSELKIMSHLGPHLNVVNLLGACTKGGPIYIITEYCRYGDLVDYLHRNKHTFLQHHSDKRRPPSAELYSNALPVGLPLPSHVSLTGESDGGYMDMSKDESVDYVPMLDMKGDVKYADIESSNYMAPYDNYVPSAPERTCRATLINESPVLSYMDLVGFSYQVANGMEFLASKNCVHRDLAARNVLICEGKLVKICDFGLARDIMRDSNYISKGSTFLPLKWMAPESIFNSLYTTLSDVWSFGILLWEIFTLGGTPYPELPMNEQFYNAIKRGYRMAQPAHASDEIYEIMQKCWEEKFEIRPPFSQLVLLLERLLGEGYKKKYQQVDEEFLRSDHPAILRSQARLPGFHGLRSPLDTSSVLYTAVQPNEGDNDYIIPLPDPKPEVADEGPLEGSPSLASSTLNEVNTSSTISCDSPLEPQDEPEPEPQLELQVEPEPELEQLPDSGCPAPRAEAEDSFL

O=C1CCCc2cc(-c3ccnc(Nc4ccccc4)n3)ccc2N1 [Compound 2a, 7-(2-Anilinopyrimidin-4-yl)-1,3,4,5-tetrahydro-2H-1-benzazepin-2-one]
IC50 (ARK5): > 100 µM
IC50 (CDK4/CycD1): 19 µM
IC50 (ERBB2): > 100 µM
IC50 (PDGFR-beta): 44 µM
IC50 (SAK): > 100 µM
IC50 (TIE2): 19 µM
